Reference: US20240398793A1, “Methods of Treating Lymphedema” (Celltaxis, LLC, priority 2021, published 2024)

Assays:
[1] = Serious adverse reactions, Phase 2 Acebilustat safety population; format: in vivo, human; settings: Phase 2, N = 217
From the text: SARs reported in the completed Phase 2 studies and suspected to be potentially related to drug treatment are tabulated below.

LTA4H aminopeptidase = LTA4H aminopeptidase (Homo sapiens (Human), UniProt P09960); settings: Bhatt et al. (2017); read-out: LTA4H aminopeptidase potency; cited from earlier work
LTA4H aminopeptidase, sequence (P09960 whole entry): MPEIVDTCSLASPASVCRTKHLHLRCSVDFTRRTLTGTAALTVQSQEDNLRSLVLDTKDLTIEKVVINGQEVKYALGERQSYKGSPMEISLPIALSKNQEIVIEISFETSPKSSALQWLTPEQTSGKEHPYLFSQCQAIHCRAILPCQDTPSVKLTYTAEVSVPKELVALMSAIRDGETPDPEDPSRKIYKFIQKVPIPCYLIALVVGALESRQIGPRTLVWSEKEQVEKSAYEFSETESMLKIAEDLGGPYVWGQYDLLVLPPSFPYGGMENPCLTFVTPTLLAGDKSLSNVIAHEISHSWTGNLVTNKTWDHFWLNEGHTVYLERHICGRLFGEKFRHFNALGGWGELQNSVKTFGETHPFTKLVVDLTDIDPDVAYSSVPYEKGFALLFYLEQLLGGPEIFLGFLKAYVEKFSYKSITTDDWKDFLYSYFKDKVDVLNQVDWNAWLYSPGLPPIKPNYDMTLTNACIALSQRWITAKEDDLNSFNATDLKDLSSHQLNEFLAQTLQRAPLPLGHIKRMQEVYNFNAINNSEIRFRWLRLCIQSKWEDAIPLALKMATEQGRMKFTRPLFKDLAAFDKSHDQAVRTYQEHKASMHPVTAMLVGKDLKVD

[2] = Most common treatment emergent adverse events, safety population
[3] = Nonclinical pharmacokinetics and mass balance studies; format: in vivo, animals
[4] = test system: sputum white blood cells and neutrophils; assay: Sputum cell counts in CF patients; format: in vivo, human
neutrophil swarming = assay: Neutrophil swarming in vitro in response to CF sputum factors; format: cell-based; settings: 48 ng/mL; factors present in human CF sputum
P-glycoprotein (P-gp) = P-glycoprotein (P-gp) (Homo sapiens (Human), UniProt P08183); assay: In vitro drug interaction study, P-gp; format: in vitro ADME
P-glycoprotein (P-gp), sequence (P08183 whole entry): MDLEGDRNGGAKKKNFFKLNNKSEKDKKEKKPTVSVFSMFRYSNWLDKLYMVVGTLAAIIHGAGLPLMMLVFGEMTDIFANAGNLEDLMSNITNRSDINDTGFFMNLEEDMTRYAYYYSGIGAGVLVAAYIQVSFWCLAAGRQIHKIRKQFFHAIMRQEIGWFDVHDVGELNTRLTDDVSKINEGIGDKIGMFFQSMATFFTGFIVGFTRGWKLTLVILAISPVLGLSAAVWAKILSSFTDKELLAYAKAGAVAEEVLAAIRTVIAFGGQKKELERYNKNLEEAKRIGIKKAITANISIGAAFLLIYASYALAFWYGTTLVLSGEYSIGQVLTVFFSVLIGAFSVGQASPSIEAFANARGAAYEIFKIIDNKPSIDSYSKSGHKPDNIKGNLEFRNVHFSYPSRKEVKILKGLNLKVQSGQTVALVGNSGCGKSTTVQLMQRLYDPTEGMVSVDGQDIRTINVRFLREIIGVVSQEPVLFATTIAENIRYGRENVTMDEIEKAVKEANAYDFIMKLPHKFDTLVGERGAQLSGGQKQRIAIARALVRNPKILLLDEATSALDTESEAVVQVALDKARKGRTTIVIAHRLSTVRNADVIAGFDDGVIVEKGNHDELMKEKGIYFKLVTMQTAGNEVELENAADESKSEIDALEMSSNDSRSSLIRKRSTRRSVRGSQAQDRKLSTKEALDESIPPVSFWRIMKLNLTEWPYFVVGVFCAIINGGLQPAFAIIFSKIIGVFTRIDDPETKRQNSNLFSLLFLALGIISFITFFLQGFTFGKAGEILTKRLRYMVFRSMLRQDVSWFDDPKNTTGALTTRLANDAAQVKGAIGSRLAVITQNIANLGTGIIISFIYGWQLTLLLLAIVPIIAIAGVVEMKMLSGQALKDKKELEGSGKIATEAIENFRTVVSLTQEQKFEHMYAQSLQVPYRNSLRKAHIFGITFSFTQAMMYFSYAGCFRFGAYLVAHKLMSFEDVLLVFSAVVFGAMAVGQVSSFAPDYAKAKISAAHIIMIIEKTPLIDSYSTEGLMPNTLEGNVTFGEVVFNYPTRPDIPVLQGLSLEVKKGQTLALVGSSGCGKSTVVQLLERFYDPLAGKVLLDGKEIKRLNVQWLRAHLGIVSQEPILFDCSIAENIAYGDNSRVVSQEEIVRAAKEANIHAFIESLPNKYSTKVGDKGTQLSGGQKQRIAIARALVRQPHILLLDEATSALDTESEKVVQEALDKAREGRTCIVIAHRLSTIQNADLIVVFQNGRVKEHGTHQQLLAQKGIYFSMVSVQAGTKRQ

In the case of `O=C(O)c1ccc(CN2C[C@@H]3C[C@H]2CN3Cc2ccc(Oc3ccc(-c4ncco4)cc3)cc2)cc1` [Acebilustat, 4-{[(1S,4S)-5-({4-[4-oxazol-2-yl-phenoxy]phenyl}methyl)-2,5-diazabicyclo[2.2.1]heptan-2-yl]methyl}benzoic acid], the “SAR Distal intestinal obstruction syndrome, # of Subjects” value [1] is reported as 1, the “SAR Distal intestinal obstruction syndrome, Frequency” value [1] is reported as 0.5% and the “SAR Distal intestinal obstruction syndrome, Intensity Mild” value [1] is reported as 0. The “SAR Distal intestinal obstruction syndrome, Intensity Moderate” value [1] was 0, the “SAR Distal intestinal obstruction syndrome, Intensity Severe” value [1] was 1 and the “SAR Drug Induced Liver Injury, # of Subjects” value [1] was 1. For the same compound, the “SAR Drug Induced Liver Injury, Frequency” value [1] was 0.5%, the “SAR Drug Induced Liver Injury, Intensity Mild” value [1] was 0 and the “SAR Drug Induced Liver Injury, Intensity Moderate” value [1] was 0. For the same compound, the “SAR Drug Induced Liver Injury, Intensity Severe” value [1] was 1, the “SAR Gastrointestinal disorders, # of Subjects” value [1] was 1 and the “SAR Gastrointestinal disorders, Frequency” value [1] was 0.5%. For the same compound, the “SAR Gastrointestinal disorders, Intensity Mild” value [1] was 0, the “SAR Gastrointestinal disorders, Intensity Moderate” value [1] was 0 and the “SAR Gastrointestinal disorders, Intensity Severe” value [1] was 1. The “SAR Hepatobiliary Disorders, # of Subjects” value [1] was 1, the “SAR Hepatobiliary Disorders, Frequency” value [1] was 0.5% and the “SAR Hepatobiliary Disorders, Intensity Mild” value [1] was 0. For the same compound, the “SAR Hepatobiliary Disorders, Intensity Moderate” value [1] was 0, the “SAR Hepatobiliary Disorders, Intensity Severe” value [1] was 1 and the “SAR Infections and infestations, # of Subjects” value [1] was 1. The “SAR Infections and infestations, Frequency” value [1] was 0.5%, the “SAR Infections and infestations, Intensity Mild” value [1] was 0 and the “SAR Infections and infestations, Intensity Moderate” value [1] was 0. For the same compound, the “SAR Infections and infestations, Intensity Severe” value [1] was 1, the “SAR Infective pulmonary exacerbation of cystic fibrosis, # of Subjects” value [1] was 1 and the “SAR Infective pulmonary exacerbation of cystic fibrosis, Frequency” value [1] was 0.5%. For the same compound, the “SAR Infective pulmonary exacerbation of cystic fibrosis, Intensity Mild” value [1] was 0, the “SAR Infective pulmonary exacerbation of cystic fibrosis, Intensity Moderate” value [1] was 0 and the “SAR Infective pulmonary exacerbation of cystic fibrosis, Intensity Severe” value [1] was 1. For the same compound, the IC50 (LTA4H aminopeptidase) was 27 nM, the “Abdominal pain TEAE, %” value ([2]; 50 mg (N = 67)) was “(4.5%)” and the “Abdominal pain upper TEAE, %” value ([2]; 50 mg (N = 67)) was “(10.4%)”. The “Arthralgia TEAE, %” value ([2]; 50 mg (N = 67)) was “(4.5%)”, the “Back pain TEAE, %” value ([2]; 50 mg (N = 67)) was “(6.0%)” and the “Chest discomfort TEAE, %” value ([2]; 50 mg (N = 67)) was “(4.5%)”. For the same compound, the “Constipation TEAE, %” value ([2]; 50 mg (N = 67)) was “(6.0%)”, the “Cough TEAE, %” value ([2]; 50 mg (N = 67)) was “(40.3%)” and the “Diarrhoea TEAE, %” value ([2]; 50 mg (N = 67)) was “(13.4%)”. The “Distal intestinal obstruction syndrome TEAE, %” value ([2]; 50 mg (N = 67)) was “(6.0%)”, the “Dyspnoea TEAE, %” value ([2]; 50 mg (N = 67)) was “(9.0%)” and the “Epistaxis TEAE, %” value ([2]; 50 mg (N = 67)) was “(6.0%)”. For the same compound, the “Fatigue TEAE, %” value ([2]; 50 mg (N = 67)) was “(13.4%)”, the “Forced expiratory volume decreased TEAE, %” value ([2]; 50 mg (N = 67)) was “(6.0%)” and the “Gastroenteritis TEAE, %” value ([2]; 50 mg (N = 67)) was “(1.5%)”. The “Gastrointestinal disorders TEAE, %” value ([2]; 50 mg (N = 67)) was “(40.3%)”, the “General disorders and administration site conditions TEAE, %” value ([2]; 50 mg (N = 67)) was “(35.8%)” and the “Haemoptysis TEAE, %” value ([2]; 50 mg (N = 67)) was “(25.4%)”. The “Headache TEAE, %” value ([2]; 50 mg (N = 67)) was “(23.9%)”, the “Infections and infestations TEAE, %” value ([2]; 50 mg (N = 67)) was “(88.1%)” and the “Influenza TEAE, %” value ([2]; 50 mg (N = 67)) was “(4.5%)”. The “Investigations TEAE, %” value ([2]; 50 mg (N = 67)) was “(29.9%)”, the “Musculoskeletal and connective tissue disorders TEAE, %” value ([2]; 50 mg (N = 67)) was “(19.4%)” and the “Nasopharyngitis TEAE, %” value ([2]; 50 mg (N = 67)) was “(16.4%)”. The “Nausea TEAE, %” value ([2]; 50 mg (N = 67)) was “(7.5%)”, the “Nervous system disorders TEAE, %” value ([2]; 50 mg (N = 67)) was “(32.8%)” and the “No. of subjects with at least one TEAE, %” value ([2]; 50 mg (N = 67)) was “(100.0%)”. For the same compound, the “Oropharyngeal pain TEAE, %” value ([2]; 50 mg (N = 67)) was “(10.4%)”, the “Paranasal sinus hypersecretion TEAE, %” value ([2]; 50 mg (N = 67)) was “(7.5%)” and the “Pyrexia TEAE, %” value ([2]; 50 mg (N = 67)) was “(9.0%)”. For the same compound, the “Rales TEAE, %” value ([2]; 50 mg (N = 67)) was “(1.5%)”, the “Rash TEAE, %” value ([2]; 50 mg (N = 67)) was “(4.5%)” and the “Respiratory, thoracic and mediastinal disorders TEAE, %” value ([2]; 50 mg (N = 67)) was “(70.1%)”. The “Rhinitis TEAE, %” value ([2]; 50 mg (N = 67)) was “(6.0%)”, the “Rhinorrhoea TEAE, %” value ([2]; 50 mg (N = 67)) was “(9.0%)” and the “Sinusitis TEAE, %” value ([2]; 50 mg (N = 67)) was “(4.5%)”. For the same compound, the “Skin and subcutaneous tissue disorders TEAE, %” value ([2]; 50 mg (N = 67)) was “(11.9%)”, the “Sputum abnormal TEAE, %” value ([2]; 50 mg (N = 67)) was “(6.0%)” and the “Sputum increased TEAE, %” value ([2]; 50 mg (N = 67)) was “(19.4%)”. For the same compound, the “Abdominal pain TEAE, %” value ([2]; 100 mg (N = 66)) was “(6.1%)”, the “Abdominal pain upper TEAE, %” value ([2]; 100 mg (N = 66)) was “(4.5%)” and the “Alanine aminotransferase increased TEAE, %” value ([2]; 100 mg (N = 66)) was “(6.1%)”. The “Arthralgia TEAE, %” value ([2]; 100 mg (N = 66)) was “(7.6%)”, the “Back pain TEAE, %” value ([2]; 100 mg (N = 66)) was “(1.5%)” and the “Chest discomfort TEAE, %” value ([2]; 100 mg (N = 66)) was “(12.1%)”. The “Constipation TEAE, %” value ([2]; 100 mg (N = 66)) was “(1.5%)”, the “Cough TEAE, %” value ([2]; 100 mg (N = 66)) was “(43.9%)” and the “Diarrhoea TEAE, %” value ([2]; 100 mg (N = 66)) was “(7.6%)”. The “Distal intestinal obstruction syndrome TEAE, %” value ([2]; 100 mg (N = 66)) was “(3.0%)”, the “Dyspnoea TEAE, %” value ([2]; 100 mg (N = 66)) was “(7.6%)” and the “Epistaxis TEAE, %” value ([2]; 100 mg (N = 66)) was “(4.5%)”. For the same compound, the “Fatigue TEAE, %” value ([2]; 100 mg (N = 66)) was “(13.6%)”, the “Forced expiratory volume decreased TEAE, %” value ([2]; 100 mg (N = 66)) was “(7.6%)” and the “Gastroenteritis TEAE, %” value ([2]; 100 mg (N = 66)) was “(6.1%)”. The “Gastrointestinal disorders TEAE, %” value ([2]; 100 mg (N = 66)) was “(30.3%)”, the “General disorders and administration site conditions TEAE, %” value ([2]; 100 mg (N = 66)) was “(36.4%)” and the “Haemoptysis TEAE, %” value ([2]; 100 mg (N = 66)) was “(18.2%)”. The “Headache TEAE, %” value ([2]; 100 mg (N = 66)) was “(13.6%)”, the “Infections and infestations TEAE, %” value ([2]; 100 mg (N = 66)) was “(90.9%)” and the “Influenza TEAE, %” value ([2]; 100 mg (N = 66)) was “(7.6%)”. The “Investigations TEAE, %” value ([2]; 100 mg (N = 66)) was “(34.8%)”, the “Musculoskeletal and connective tissue disorders TEAE, %” value ([2]; 100 mg (N = 66)) was “(16.7%)” and the “Nasopharyngitis TEAE, %” value ([2]; 100 mg (N = 66)) was “(21.2%)”. For the same compound, the “Nausea TEAE, %” value ([2]; 100 mg (N = 66)) was “(12.1%)”, the “Nervous system disorders TEAE, %” value ([2]; 100 mg (N = 66)) was “(22.7%)” and the “No. of subjects with at least one TEAE, %” value ([2]; 100 mg (N = 66)) was “(100.0%)”. For the same compound, the “Oropharyngeal pain TEAE, %” value ([2]; 100 mg (N = 66)) was “(13.6%)”, the “Pyrexia TEAE, %” value ([2]; 100 mg (N = 66)) was “(12.1%)” and the “Rales TEAE, %” value ([2]; 100 mg (N = 66)) was “(6.1%)”. The “Rash TEAE, %” value ([2]; 100 mg (N = 66)) was “(9.1%)”, the “Respiratory, thoracic and mediastinal disorders TEAE, %” value ([2]; 100 mg (N = 66)) was “(75.8%)” and the “Rhinitis TEAE, %” value ([2]; 100 mg (N = 66)) was “(4.5%)”. The “Rhinorrhoea TEAE, %” value ([2]; 100 mg (N = 66)) was “(7.6%)”, the “Sinusitis TEAE, %” value ([2]; 100 mg (N = 66)) was “(10.6%)” and the “Skin and subcutaneous tissue disorders TEAE, %” value ([2]; 100 mg (N = 66)) was “(24.2%)”. For the same compound, the “Sputum increased TEAE, %” value ([2]; 100 mg (N = 66)) was “(10.6%)”, the “accumulation and retention in pigmented tissues (uveal tract)” value ([3]; mass balance studies in animals) was “some potential for accumulation and retention” and the route of elimination ([3]; nonclinical) was “primarily via liver-bile-feces”. For the same compound, the “total drug excreted via kidneys” value ([3]; nonclinical) was “less than 3%”, the sputum neutrophils decrease ([4]; 100 mg group) was 65% and the “sputum white blood cells decrease from Baseline” value ([4]; 100 mg group) was 60%. For the same compound, the sputum neutrophils decrease ([4]; all treated (50 to 100 mg)) was 34%, the “sputum white blood cells decrease from Baseline” value ([4]; all treated subjects (50 or 100 mg)) was 31% and the “reduction of neutrophil swarming” value (neutrophil swarming) was 80%. The “drug interactions with substrates of P-gp” value (P-glycoprotein (P-gp)) was “potential for drug interactions”.
